Experimental data taken from US20230094922A1, “METHODS OF THERAPEUTIC PROGNOSTICATION” (GENETIKAPLUS LTD., priority 2020, published 2023).

System: iPSC-derived cortical neurons
Format: cell-based
Conditions: responders vs non-responders after 10 μM Bupropion

CC(NC(C)(C)C)C(=O)c1cccc(Cl)c1 (stereo not drawn) [Bupropion, 3-Chloro-N-tert-butyl-β-keto-α-methylphenethylamin]
logFC PARP6 (NS): −0.681 | logFC PCBP4 (NS): −1.293 | logFC PCDH10 (NS): −1.015 | logFC PCSK1N (NS): −1.46 | logFC PDYN (NS): −1.613 | logFC PGM2L1 (NS): −1.008 | logFC PHACTR3 (NS): −1.439 | logFC PID1 (NS): −1.455 | logFC PIK3R1 (NS): −0.9783 | logFC PITPNC1 (NS): −0.8298 | logFC PITPNM2 (NS): −0.7259 | logFC PKIA (NS): −1.194 | logFC PLPPR2 (NS): −0.974 | logFC PNMA3 (NS): −1.221 | logFC PPEF1 (NS): −1.59 | logFC PPFIA2 (NS): −1.898 | logFC PPFIA3 (NS): −0.735 | logFC PPM1K (NS): −0.7077 | logFC PPP1R13B (NS): −1.191 | logFC PPP2R2B (NS): −1.116 | logFC PPP2R2C (NS): −1.735 | logFC PPP2R5B (NS): −1.051 | logFC PRDM8 (NS): −2.418 | logFC PSD (NS): −1.027 | logFC PSD2 (NS): −1.447 | logFC PTPRH (NS): −1.255 | logFC PTPRN2 (NS): −1.272 | logFC PTPRR (NS): −1.517 | logFC RAB3A (NS): −1.354 | logFC RAB3C (NS): −1.236 | logFC RAB6B (NS): −1.225 | logFC RAB33A (NS): −1.51 | logFC RAP1GAP (NS): −0.7191 | logFC RASGEF1B (NS): −1.168 | logFC RBFOX1 (NS): −1.576 | logFC RBFOX3 (NS): −1.575 | logFC RBP4 (NS): −2.21 | logFC RCAN2 (NS): −1.602 | logFC REM2 (NS): −1.186 | logFC RETREG2 (NS): −0.5717 | logFC RGR (NS): −2.072 | logFC RGS7 (NS): −1.689 | logFC RHBDL3 (NS): −1.325 | logFC RHOBTB2 (NS): −0.7317 | logFC RIMS1 (NS): −1.83 | logFC RIT2 (NS): −2.318 | logFC RNF152 (NS): −1.135 | logFC RNF165 (NS): −0.9556 | logFC RPS6KA2 (NS): −0.8831 | logFC RTN1 (NS): −1.456 | logFC RUFY3 (NS): −0.7072 | logFC RUNDC3B (NS): −1.512 | logFC RUNX1T1 (NS): −1.916 | logFC RXRG (NS): −1.776 | logFC SAMD14 (NS): −1.111 | logFC SARM1 (NS): −1.209 | logFC SCAPER (NS): −0.7606 | logFC SCG2 (NS): −1.691 | logFC SCG3 (NS): −1.431 | logFC SCN1A (NS): −1.947 | logFC SCN2A (NS): −1.841 | logFC SCN3B (NS): −1.722 | logFC SCN7A (NS): −1.457 | logFC SCN9A (NS): −1.803 | logFC SEPTIN3 (NS): −1.333 | logFC SERP2 (NS): −1.449 | logFC SEZ6L (NS): −1.45 | logFC SEZ6L2 (NS): −0.7768 | logFC SHANK1 (NS): −1.292 | logFC SHISAL1 (NS): −1.498 | logFC SHISAL2A (NS): −1.16 | logFC SIDTI (NS): −2.103 | logFC SIT1 (NS): −1.927 | logFC SLC4A8 (NS): −0.8668 | logFC SLC7A14 (NS): −1.705 | logFC SLC8A3 (NS): −1.496 | logFC SLC17A6 (NS): −2.069 | logFC SLC22A15 (NS): −0.9589 | logFC SLC22A23 (NS): −1.148 | logFC SLC37A1 (NS): −1.052 | logFC SLC38A4 (NS): −1.273 | logFC SLCO2B1 (NS): −1.491 | logFC SLCO5A1 (NS): −1.211 | logFC SLITRK1 (NS): −1.312 | logFC SMAP2 (NS): −0.8196 | logFC SMPD3 (NS): −1.445 | logFC SNAP91 (NS): −1.605 | logFC SNCB (NS): −1.524 | logFC SNCG (NS): −1.396 | logFC SNPH (NS): −1.134 | logFC SNTG1 (NS): −2.048 | logFC SPNS2 (NS): −1.211 | logFC SPTBN4 (NS): −1.122 | logFC SRRM3 (NS): −1.175 | logFC SSTR2 (NS): −1.449 | logFC ST8SIA2 (NS): −1.153 | logFC STK32B (NS): −1.644 | logFC STX1B (NS): −0.9907 | logFC STXBP1 (NS): −1.033 | logFC SV2A (NS): −0.9341 | logFC SYN1 (NS): −1.543 | logFC SYNGR1 (NS): −0.8271 | logFC SYP (NS): −1.709 | logFC SYT1 (NS): −1.058 | logFC SYT7 (NS): −1.505 | logFC SYT13 (NS): −1.444 | logFC TAC1 (NS): −1.101 | logFC TAFA1 (NS): −2.193 | logFC TAGLN3 (NS): −1.002 | logFC TANC2 (NS): −0.7278 | logFC TBC1D24 (NS): −0.8527 | logFC TERF2IP (NS): −0.7455 | logFC TH (NS): −1.664 | logFC THRB (NS): −2.357 | logFC TIMP2 (NS): −0.878 | logFC TLCD3B (NS): −1.431 | logFC TMEM59L (NS): −0.8819 | logFC TMEM121B (NS): −0.8958 | logFC TMEM132B (NS): −1.025 | logFC TMEM151A (NS): −1.522 | logFC TMEM151B (NS): −1.463 | logFC TMEM178A (NS): −0.904 | logFC TMEM246 (NS): −1.159 | logFC TOM1L2 (NS): −0.7199 | logFC TP53I11 (NS): −0.8407 | logFC TP53INP2 (NS): −1.177 | logFC TPPP (NS): −1.04 | logFC TRIB2 (NS): −0.7077 | logFC TRIM9 (NS): −1.352 | logFC TSPAN7 (NS): −1.098 | logFC TSPYL5 (NS): −1.843 | logFC TTBK1 (NS): −1.374 | logFC TUBB2B (NS): −0.7583 | logFC TVP23A (NS): −1.064 | logFC VPS26B (NS): −0.6245 | logFC VSTM2A (NS): −1.971 | logFC VWA5B2 (NS): −1.111 | logFC VXN (NS): −1.527 | logFC WDR47 (NS): −0.8343 | logFC WDR82 (NS): −0.4862 | logFC WNK2 (NS): −0.7608 | logFC WSB2 (NS): −0.8644 | logFC ZC3HAV1L (NS): −2.186 | logFC ZDHHC22 (NS): −1.455 | logFC ZFP3 (NS): −1.933 | logFC ZNF385A (NS): −0.8795 | logFC ZNF439 (NS): −2.201 | logFC ABCC6 (p<0.01): −0.5461 | logFC ADAMTS4 (p<0.01): −0.723 | logFC ADAMTS8 (p<0.01): −1.658 | logFC ADAMTS15 (p<0.01): −1.743 | logFC ADAMTSL1 (p<0.01): −1.46 | logFC ADAMTSL2 (p<0.01): −1.833 | logFC ALDOC (p<0.01): −0.6635 | logFC APOL2 (p<0.01): −0.6452 | logFC AQP6 (p<0.01): −1.137 | logFC ARHGAP23 (p<0.01): −0.5891 | logFC ARHGEF28 (p<0.01): −0.916 | logFC ARL17B (p<0.01): −1.232 | logFC ASPN (p<0.01): −3.695 | logFC BDKRB2 (p<0.01): −1.475 | logFC C1R (p<0.01): −1.32 | logFC C5orf63 (p<0.01): −1.211 | logFC CABP7 (p<0.01): −1.06 | logFC CACNA1H (p<0.01): −0.5137 | logFC CCDC183 (p<0.01): −0.5281 | logFC CCDC187 (p<0.01): −1.023 | logFC CCER2 (p<0.01): −0.8431 | logFC CD151 (p<0.01): −0.4377 | logFC CDKN1C (p<0.01): −0.6211 | logFC CEMIP (p<0.01): −2.321 | logFC CHST8 (p<0.01): −1.474 | logFC COL1A1 (p<0.01): −1.88 | logFC COL6A1 (p<0.01): −0.5639 | logFC COL8A2 (p<0.01): −2.755 | logFC COL15A1 (p<0.01): −2.224 | logFC CPA4 (p<0.01): −2.791 | logFC CPNE5 (p<0.01): −0.937 | logFC CXCL2 (p<0.01): −1.783 | logFC CXCL6 (p<0.01): −2.412 | logFC CXCL8 (p<0.01): −3.086 | logFC DHRS3 (p<0.01): −1.126 | logFC DRGX (p<0.01): −4.337 | logFC DYRK1B (p<0.01): −0.3984 | logFC EFEMP2 (p<0.01): −0.7929 | logFC EGFLAM (p<0.01): −1.798 | logFC ELN (p<0.01): −2.048 | logFC EPHB3 (p<0.01): −0.4956 | logFC EYA2 (p<0.01): −0.955 | logFC FAM20C (p<0.01): −0.6923 | logFC FBLN5 (p<0.01): −1.918 | logFC FMOD (p<0.01): −2.269 | logFC FNDC5 (p<0.01): −0.7008 | logFC FRMPD1 (p<0.01): −2.303 | logFC GAA (p<0.01): −0.4856 | logFC GALNT14 (p<0.01): −1.152 | logFC GLIS2 (p<0.01): −0.5025 | logFC GPBAR1 (p<0.01): −0.9131 | logFC HCN1 (p<0.01): −2.181 | logFC HES6 (p<0.01): −1.04 | logFC HMX1 (p<0.01): −1.478 | logFC HOXB5 (p<0.01): −2.739 | logFC HS3ST2 (p<0.01): −1.228 | logFC HS6ST1 (p<0.01): −0.6264 | logFC IAH1 (p<0.01): −0.789 | logFC IGFBP5 (p<0.01): −0.9814 | logFC IL17RC (p<0.01): −0.5333 | logFC INHBB (p<0.01): −1.748 | logFC INMT (p<0.01): −1.061 | logFC IRF2BPL (p<0.01): −0.3835 | logFC ISLR (p<0.01): −1.646 | logFC ITPRIP (p<0.01): −0.5931 | logFC JOSD2 (p<0.01): −0.7377 | logFC KCNA1 (p<0.01): −3.416 | logFC KCNJ5 (p<0.01): −1.028 | logFC KDM4B (p<0.01): −0.331 | logFC KHDC1 (p<0.01): −0.7724 | logFC KIF26A (p<0.01): −0.5135 | logFC KLHL35 (p<0.01): −1.144 | logFC LGALS3BP (p<0.01): −0.9602 | logFC LOXL1 (p<0.01): −0.6236 | logFC LRFN5 (p<0.01): −0.6816 | logFC LURAP1L (p<0.01): −1.086 | logFC LYPD1 (p<0.01): −0.7703 | logFC MAB21L2 (p<0.01): −0.9329 | logFC MAFB (p<0.01): −0.573 | logFC MCC (p<0.01): −0.8548 | logFC MGP (p<0.01): −2.67 | logFC MKX (p<0.01): −1.878 | logFC MX2 (p<0.01): −1.618 | logFC NDUFA4L2 (p<0.01): −0.8379 | logFC NFIX (p<0.01): −2.446 | logFC NNMT (p<0.01): −2.326 | logFC NPR2 (p<0.01): −0.5942 | logFC NTNG2 (p<0.01): −1.161 | logFC OGFR (p<0.01): −0.318 | logFC OLFML2B (p<0.01): −1.03 | logFC OPRK1 (p<0.01): −0.939 | logFC OPRM1 (p<0.01): −1.985 | logFC OPTN (p<0.01): −0.44 | logFC OTOG (p<0.01): −1.855 | logFC P4HA3 (p<0.01): −2.239 | logFC PADI2 (p<0.01): −1.485 | logFC PALM (p<0.01): −0.581 | logFC PARP10 (p<0.01): −1.041 | logFC PENK (p<0.01): −1.977 | logFC PHOX2B (p<0.01): −2.192 | logFC PIEZO2 (p<0.01): −2.464 | logFC PIRT (p<0.01): −3.199 | logFC PLAC9 (p<0.01): −1.585
